Values of other authors, collected in patent US20160194352A1, “AMORPHOUS FORMS OF DACLATASVIR DIHYDROCHLORIDE” (Dr.Reddy's Laboratories Ltd., priority 2015, published 2016).

Tested on: HCV
Conditions: HCV infected patients, combination therapy

For alpha-interferon and ribavirin, the “sustained efficacy, share of patients” value is listed as 40% of patients.
